The test system of the test is lymph node mononuclear cells (T cell proliferation in response to HEL). Nature of the test: T cell recall responses to HEL, 3H-thymidine uptake (proliferation). Conditions: alprazolam (Xanax) alone, any of the dosages tested. It counts as cell-based, Mice. As for the experimental part:
Mice were injected with hen egg lysozyme (HEL, a prototypic foreign antigen) in 50% complete Freund's adjuvant (CFA) in their hind food-pad. […] During the last 16 h of a 96 h incubation period, […] ^3H thymidine was added into each well.

For `Cc1nnc2n1-c1ccc(Cl)cc1C(c1ccccc1)=NC2` [alprazolam], the “effect on T cell proliferation” value is on record as “did not have a significant effect”.

Source of the values: US11992495B2 (THE REGENTS OF THE UNIVERSITY OF CALIFORNIA, priority 2017, dated 2024).
